Experimental data from ChEMBL document CHEMBL1156844, “Inhibition of neuraminidase activity by polyphenol compounds isolated from the roots of Glycyrrhiza uralensis” (Bioorg Med Chem Lett, 2010).

What was measured:
[1] = Inhibition of Spanish flu (A/Bervig_Mission/1/18) neuraminidase; parameters: species or system Influenza A virus (A/Brevig Mission/1/1918(H1N1))
[2] = Inhibition of Spanish flu (A/Bervig_Mission/1/18) neuraminidase by noncompetitive inhibition assay; parameters: species or system Influenza A virus (A/Brevig Mission/1/1918(H1N1))
[3] = tested on: Influenza A virus (A/Brevig Mission/1/1918(H1N1)); experiment: Inhibition of Spanish flu (A/Bervig_Mission/1/18) neuraminidase at 200 uM

| Compound | IC50 [1] [µM] | Ki [2] [µM] | inhibition [3] [%] |
| --- | --- | --- | --- |
| COc1cc(O)ccc1C(=O)/C=C/c1ccc(O)cc1 | 24.3 | 20.1 | – |
| COc1c(CC=C(C)C)c(O)cc2c1C[C@H](c1ccc(O)cc1O)CO2 | – | – | 20 |
| COc1c2c(cc3oc(=O)c(-c4ccc(O)cc4O)cc13)OC(C)(CO)CC2 (stereo unspecified) | – | – | 10 |
| COc1cc2c(c(OC)c1CC=C(C)C)C(=O)[C@H](c1ccc(O)c(CC=C(C)C)c1O)CO2 | – | – | 30 |
| COc1cc2c(c(OC)c1CC=C(C)C)C[C@H](c1ccc(O)cc1O)CO2 | – | – | 20 |
| COc1cc2oc(=O)c(-c3ccc(O)cc3O)cc2c(OC)c1CC=C(C)C | – | – | 10 |
| COc1ccc(-c2coc3cc(O[C@@H]4O[C@H](CO)[C@@H](O)[C@H](O)[C@H]4O)ccc3c2=O)cc1 | – | – | 30 |
| COc1c(CC=C(C)C)c(O)cc2oc(=O)c3c4ccc(O)cc4oc3c12 [GLYCYROL] | 3.1 | 2.9 | – |
| COc1c2c(cc3oc(=O)c4c5ccc(O)cc5oc4c13)OC(C)(C)CC2 [ISOGLYCYROL] | 92.4 | 77.5 | – |
| O=C(/C=C/c1ccc(O)cc1)c1ccc(O)cc1O [ISOLIQUIRITIGENIN] | 9 | 9.9 | – |
| O=C(/C=C/c1ccc(O[C@@H]2O[C@H](CO)[C@@H](O)[C@H](O)[C@H]2O[C@H]2OC[C@@](O)(CO)[C@@H]2O)cc1)c1ccc(O)cc1O [ISOLIQUIRITIN APIOSIDE] | 12.9 | 14.2 | – |
| O=C(/C=C/c1ccc(O[C@@H]2O[C@H](CO)[C@@H](O)[C@H](O)[C@H]2O)cc1)c1ccc(O)cc1O [ISOLIQUIRITIN] | 124 | 94 | – |
| COc1cc(O)c2c(=O)c(OC)c(-c3ccc(O)cc3)oc2c1 [KUMATAKENIN] | 36.4 | 90.3 | – |
| COc1c(CC=C(C)C)c(O)cc2oc(-c3ccc(O)cc3O)cc12 [LICOCOUMARONE] | 27.8 | 12.1 | – |
| CC(C)=CCc1c(O)cc2oc(-c3ccc(O)cc3)c(O)c(=O)c2c1O [LICOFLAVONOL] | 20.6 | 33 | – |
| O=C1C[C@@H](c2ccc(O[C@@H]3O[C@H](CO)[C@@H](O)[C@H](O)[C@H]3O[C@H]3OC[C@@](O)(CO)[C@@H]3O)cc2)Oc2cc(O)ccc21 [LIQUIRITIN APIOSIDE] | 18.2 | 20.4 | – |
| O=C1C[C@@H](c2ccc(O[C@@H]3O[C@H](CO)[C@@H](O)[C@H](O)[C@H]3O)cc2)Oc2cc(O)ccc21 [LIQUIRITIN] | 82.3 | 124 | – |
| O=C1C[C@@H](c2ccc(O)cc2)Oc2cc(O)ccc21 [LIQUIRTIGENIN] | 46.8 | 33.1 | – |
| CCOC(=O)C1=C[C@@H](OC(CC)CC)[C@H](NC(C)=O)[C@@H](N)C1 [OSELTAMIVIR] | 1.59 | – | – |
